{"source": "ChEMBL document CHEMBL5325462", "about": "“Regioselective synthesis and in vitro cytotoxicity evaluation of 3-thiooxindole derivatives: Tubulin polymerization inhibition and apoptosis inducing studies” (Bioorg Med Chem, 2023)", "key": {"A549": {"test_system": "A549", "experiment": "Cytotoxicity against human A549 cells assessed as inhibition of cell growth measured after 72 hrs by MTT assay", "type": "functional, cell-based", "settings": "A549, 72 h"}, "MCF7": {"test_system": "MCF7", "experiment": "Cytotoxicity against human MCF7 cells assessed as inhibition of cell growth measured after 72 hrs by MTT assay", "type": "functional, cell-based", "settings": "MCF7, 72 h"}, "SK-MEL-28": {"test_system": "SK-MEL-28", "experiment": "Cytotoxicity against human SK-MEL-28 cells assessed as inhibition of cell growth measured after 72 hrs by MTT assay", "type": "functional, cell-based", "settings": "SK-MEL-28, 72 h"}, "HCT-116 [1]": {"test_system": "HCT-116", "experiment": "Cytotoxicity against human HCT-116 cells assessed as inhibition of cell growth measured after 72 hrs by MTT assay", "type": "functional, cell-based", "settings": "HCT-116, 72 h"}, "BT-474": {"test_system": "BT-474", "experiment": "Cytotoxicity against human BT-474 cells assessed as inhibition of cell growth measured after 72 hrs by MTT assay", "type": "functional, cell-based", "settings": "BT-474, 72 h"}, "HCT-116 [2]": {"test_system": "HCT-116", "experiment": "Induction of apoptosis in human HCT-116 cells assessed as reduction in cell viability at 3.32 to 13.28 uM measured after 48 hrs by phase contrast microscope", "type": "functional, cell-based", "settings": "dose 3.32-13.28 µM"}, "HCT-116 [3]": {"test_system": "HCT-116", "experiment": "Induction of morphological changes in human HCT-116 cells assessed as cell detachment at 3.32 to 13.28 uM measured after 48 hrs by phase contrast microscope", "type": "functional, cell-based", "settings": "dose 3.32-13.28 µM"}, "HCT-116 [4]": {"test_system": "HCT-116", "experiment": "Induction of morphological changes in human HCT-116 cells assessed as formation of apoptotic bodies incubated for 24 hrs by acridine orange/ethidium bromide staining based fluorescence microscopic analysis", "type": "functional, cell-based"}, "HCT-116 [5]": {"test_system": "HCT-116", "experiment": "Induction of morphological changes in human HCT-116 cells assessed as formation of necrotic bodies incubated for 24 hrs by acridine orange/ethidium bromide staining based fluorescence microscopic analysis", "type": "functional, cell-based"}, "HCT-116 [6]": {"test_system": "HCT-116", "experiment": "Induction of nuclear morphological changes in human HCT-116 cells assessed as change in nuclear condensation measured after 48 hrs by DAPI-staining based fluorescence microscopic analysis", "type": "functional, cell-based"}, "HCT-116 [7]": {"test_system": "HCT-116", "experiment": "Induction of nuclear morphological changes in human HCT-116 cells assessed as horseshoe shaped nuclei formation measured after 48 hrs by DAPI-staining based fluorescence microscopic analysis", "type": "functional, cell-based"}, "HCT-116 [8]": {"test_system": "HCT-116", "experiment": "Induction of ROS production in human HCT-116 cells at 3.32 uM incubated for 72 hrs by DCFDA staining based fluorescence microscopic analysis", "type": "functional, cell-based"}, "HCT-116 [9]": {"test_system": "HCT-116", "experiment": "Inhibition of cell invasion in human HCT-116 cells at 3.32 to 13.28 uM measured after 48 hrs by phase contrast microscopic analysis", "type": "functional, cell-based", "settings": "dose 3.32-13.28 µM"}, "HCT-116 [10]": {"test_system": "HCT-116", "experiment": "Inhibition of colony formation in human HCT-116 cells at 3.32 to 13.28 uM measured after 14 days", "type": "functional, cell-based", "settings": "dose 3.32-13.28 µM, time 14.0 day"}, "Cell membrane [11]": {"test_system": "Cell membrane", "experiment": "Induction of mitochondrial membrane potential loss in human HCT-116 cells assessed as polarized cells at 3.32 uM incubated for 72 hrs by JC-1 staining based flow cytometry analysis (reference value: 99.6 %)", "type": "subcellular"}, "Cell membrane [12]": {"test_system": "Cell membrane", "experiment": "Induction of mitochondrial membrane potential loss in human HCT-116 cells assessed as polarized cells at 6.64 uM incubated for 72 hrs by JC-1 staining based flow cytometry analysis (reference value: 99.6 %)", "type": "subcellular"}, "Cell membrane [13]": {"test_system": "Cell membrane", "experiment": "Induction of mitochondrial membrane potential loss in human HCT-116 cells assessed as depolarized cells at 3.32 uM incubated for 72 hrs by JC-1 staining based flow cytometry analysis (reference value: 0.4 %)", "type": "subcellular"}, "Cell membrane [14]": {"test_system": "Cell membrane", "experiment": "Induction of mitochondrial membrane potential loss in human HCT-116 cells assessed as depolarized cells at 13.28 uM incubated for 72 hrs by JC-1 staining based flow cytometry analysis (reference value: 0.4 %)", "type": "subcellular"}, "HCT-116 [15]": {"test_system": "HCT-116", "experiment": "Induction of apoptosis in human HCT-116 cells assessed as viable cells at 13.28 uM incubated for 24 hrs by Annexin V-FITC/PI staining based flow cytometry analysis (Rvb= 99.7%)", "type": "functional", "settings": "read-out: Activity"}, "HCT-116 [16]": {"test_system": "HCT-116", "experiment": "Induction of apoptosis in human HCT-116 cells assessed as late apoptotic cells at 6.64 uM incubated for 24 hrs by Annexin V-FITC/PI staining based flow cytometry analysis (Rvb= 0.1%)", "type": "functional"}, "HCT-116 [17]": {"test_system": "HCT-116", "experiment": "Induction of apoptosis in human HCT-116 cells assessed as late apoptotic cells at 13.28 uM incubated for 24 hrs by Annexin V-FITC/PI staining based flow cytometry analysis (Rvb= 0.1%)", "type": "functional"}, "HCT-116 [18]": {"test_system": "HCT-116", "experiment": "Induction of apoptosis in human HCT-116 cells assessed as necrotic cells at 3.32 uM incubated for 24 hrs by Annexin V-FITC/PI staining based flow cytometry analysis (Rvb= 0.0%)", "type": "functional"}, "HCT-116 [19]": {"test_system": "HCT-116", "experiment": "Induction of apoptosis in human HCT-116 cells assessed as necrotic cells at 6.64 uM incubated for 24 hrs by Annexin V-FITC/PI staining based flow cytometry analysis (Rvb= 0.0%)", "type": "functional"}, "HCT-116 [20]": {"test_system": "HCT-116", "experiment": "Induction of apoptosis in human HCT-116 cells assessed as necrotic cells at 13.28 uM incubated for 24 hrs by Annexin V-FITC/PI staining based flow cytometry analysis (Rvb= 0.0%)", "type": "functional"}, "HCT-116 [21]": {"test_system": "HCT-116", "experiment": "Cell cycle arrest in human HCT-116 cells assessed as accumulation of cells in sub-G1 phase at 3.32 uM measured after 48 hrs by PI staining based flow cytometry method (reference value: 4.6%)", "type": "functional"}, "HCT-116 [22]": {"test_system": "HCT-116", "experiment": "Cell cycle arrest in human HCT-116 cells assessed as accumulation of cells in sub-G1 phase at 6.64 uM measured after 48 hrs by PI staining based flow cytometry method (reference value: 4.6%)", "type": "functional"}, "HCT-116 [23]": {"test_system": "HCT-116", "experiment": "Cell cycle arrest in human HCT-116 cells assessed as accumulation of cells in sub-G1 phase at 13.28 uM measured after 48 hrs by PI staining based flow cytometry method (reference value: 4.6%)", "type": "functional"}, "HCT-116 [24]": {"test_system": "HCT-116", "experiment": "Cell cycle arrest in human HCT-116 cells assessed as accumulation of cells in G0/G1 phase at 3.32 uM measured after 48 hrs by PI staining based flow cytometry method (reference value: 79%)", "type": "functional"}, "HCT-116 [25]": {"test_system": "HCT-116", "experiment": "Cell cycle arrest in human HCT-116 cells assessed as accumulation of cells in G0/G1 phase at 13.28 uM measured after 48 hrs by PI staining based flow cytometry method (reference value: 79%)", "type": "functional"}, "HCT-116 [26]": {"test_system": "HCT-116", "experiment": "Cell cycle arrest in human HCT-116 cells assessed as accumulation of cells in S phase at 3.32 uM measured after 48 hrs by PI staining based flow cytometry method (reference value: 8.8%)", "type": "functional"}, "HCT-116 [27]": {"test_system": "HCT-116", "experiment": "Cell cycle arrest in human HCT-116 cells assessed as accumulation of cells in S phase at 6.64 uM measured after 48 hrs by PI staining based flow cytometry method (reference value: 8.8%)", "type": "functional"}, "HCT-116 [28]": {"test_system": "HCT-116", "experiment": "Cell cycle arrest in human HCT-116 cells assessed as accumulation of cells in S phase at 13.28 uM measured after 48 hrs by PI staining based flow cytometry method (reference value: 8.8%)", "type": "functional"}, "HCT-116 [29]": {"test_system": "HCT-116", "experiment": "Cell cycle arrest in human HCT-116 cells assessed as accumulation of cells in G2/M phase at 6.64 uM measured after 48 hrs by PI staining based flow cytometry method (reference value: 6.7%)", "type": "functional"}, "HCT-116 [30]": {"test_system": "HCT-116", "experiment": "Cell cycle arrest in human HCT-116 cells assessed as accumulation of cells in G2/M phase at 13.28 uM measured after 48 hrs by PI staining based flow cytometry method (reference value: 6.7%)", "type": "functional"}}, "note": "Calls of active or inactive are those of the source. The rule behind the calls is not given here."}
{"smiles": "CC(C)(C)S(=O)(=O)NCC1(Sc2nc3ccccc3[nH]2)C(=O)N(Cc2ccc(Br)cc2)c2ccccc21", "note": "(centres undefined)", "values": [{"measurement": "IC50", "setting": "A549", "value": 19.2, "unit": "µM"}, {"measurement": "IC50", "setting": "MCF7", "value": 12.8, "unit": "µM"}, {"measurement": "IC50", "setting": "SK-MEL-28", "value": 15.3, "unit": "µM"}, {"measurement": "IC50", "setting": "HCT-116 [1]", "value": 6.64, "unit": "µM"}, {"measurement": "IC50", "setting": "BT-474", "value": 14.2, "unit": "µM"}, {"measurement": "Activity", "setting": "HCT-116 [2]", "value": "Active"}, {"measurement": "Activity", "setting": "HCT-116 [3]", "value": "Active"}, {"measurement": "Activity", "setting": "HCT-116 [4]", "value": "Dose-Dependent Effect"}, {"measurement": "Activity", "setting": "HCT-116 [5]", "value": "Active"}, {"measurement": "Activity", "setting": "HCT-116 [6]", "value": "Dose-Dependent Effect"}, {"measurement": "Activity", "setting": "HCT-116 [7]", "value": "Dose-Dependent Effect"}, {"measurement": "Activity", "setting": "HCT-116 [8]", "value": "Active"}, {"measurement": "inhibition", "setting": "HCT-116 [9]", "value": "Active"}, {"measurement": "inhibition", "setting": "HCT-116 [10]", "value": "Active"}, {"measurement": "Activity", "setting": "Cell membrane [11]", "value": 97, "unit": "%"}, {"measurement": "Activity", "setting": "Cell membrane [12]", "value": 94.1, "unit": "%"}, {"measurement": "Activity", "setting": "Cell membrane [13]", "value": 3, "unit": "%"}, {"measurement": "Activity", "setting": "Cell membrane [14]", "value": 13.3, "unit": "%"}, {"measurement": "viability at 13.28 µM", "setting": "HCT-116 [15]", "value": 4.2, "unit": "%"}, {"measurement": "Activity", "setting": "HCT-116 [16]", "value": 58.4, "unit": "%"}, {"measurement": "Activity", "setting": "HCT-116 [17]", "value": 84.1, "unit": "%"}, {"measurement": "Activity", "setting": "HCT-116 [18]", "value": 0.3, "unit": "%"}, {"measurement": "Activity", "setting": "HCT-116 [19]", "value": 10.4, "unit": "%"}, {"measurement": "Activity", "setting": "HCT-116 [20]", "value": 2.9, "unit": "%"}, {"measurement": "Activity", "setting": "HCT-116 [21]", "value": 24.4, "unit": "%"}, {"measurement": "Activity", "setting": "HCT-116 [22]", "value": 27.4, "unit": "%"}, {"measurement": "Activity", "setting": "HCT-116 [23]", "value": 32.3, "unit": "%"}, {"measurement": "Activity", "setting": "HCT-116 [24]", "value": 52, "unit": "%"}, {"measurement": "Activity", "setting": "HCT-116 [25]", "value": 41, "unit": "%"}, {"measurement": "Activity", "setting": "HCT-116 [26]", "value": 11.7, "unit": "%"}, {"measurement": "Activity", "setting": "HCT-116 [27]", "value": 11.1, "unit": "%"}, {"measurement": "Activity", "setting": "HCT-116 [28]", "value": 8.6, "unit": "%"}, {"measurement": "Activity", "setting": "HCT-116 [29]", "value": 13.3, "unit": "%"}, {"measurement": "Activity", "setting": "HCT-116 [30]", "value": 18.4, "unit": "%"}]}
